Residues, ends and D or L forms follow the SMILES beside them. *: point of attachment. Cbz = O=C(OCc1ccccc1)*; NHOH = ON*
target: T1, type IV collagenases (Homo sapiens, UniProt P08253); assay: Inhibitory activity on type IV collagenases: cleavage of radio-labelled type IV collagen; type: biochemical; details: type IV collagenases from serum-free culture medium of human melanoma cells; radio-labelled type IV collagen from mouse EHS tumor as substrate
T1 construct: type IV collagenases prepared from a serum-free culture medium of human melanoma cells; endogenous in cells
T1 sequence (P08253 110-660): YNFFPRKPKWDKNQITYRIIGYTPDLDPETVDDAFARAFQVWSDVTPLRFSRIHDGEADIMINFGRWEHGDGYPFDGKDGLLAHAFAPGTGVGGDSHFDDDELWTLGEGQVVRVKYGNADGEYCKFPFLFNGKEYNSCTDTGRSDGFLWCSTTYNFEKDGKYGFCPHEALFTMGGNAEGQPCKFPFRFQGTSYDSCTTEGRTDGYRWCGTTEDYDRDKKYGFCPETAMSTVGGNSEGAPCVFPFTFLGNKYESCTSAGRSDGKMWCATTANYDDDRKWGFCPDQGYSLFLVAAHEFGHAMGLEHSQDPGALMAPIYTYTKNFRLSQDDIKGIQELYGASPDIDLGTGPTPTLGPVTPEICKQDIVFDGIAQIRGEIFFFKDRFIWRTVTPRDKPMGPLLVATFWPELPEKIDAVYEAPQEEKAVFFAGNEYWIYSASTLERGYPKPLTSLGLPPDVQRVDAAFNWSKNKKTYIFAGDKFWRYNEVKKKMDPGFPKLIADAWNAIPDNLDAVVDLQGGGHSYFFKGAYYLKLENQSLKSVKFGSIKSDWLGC
Protocol: The activity of type IV collagenase was assayed according to the method of Salo et al. [J. Biol. Chem., Vol. 258, 3058-3063 (1983)].
In detail, the activity was assayed by measuring the cleavage of collagen by using type IV collagenases prepared from a serum-free culture medium of human melanoma cells, and type IV collagen prepared from mouse EHS tumor radio-labelled as a substrate.
The inhibitory activity on type IV collagenases was measured by calculating the inhibition percent of the enzyme reaction, in which the test samples were added to the reaction mixture.
The results (expressed as I50) is shown below.

| Structure (SMILES) | IC50 [nM] |
| --- | --- |
| CCCCC[C@H](CC(=O)NO)C(=O)N1NCCC[C@H]1C(=O)N[C@H](C(=O)N(C)OC)C(C)C [Example 3, 2-(S)-[N^2-[2-(R)-(Hydroxyaminocarbonyl)methyl-1-oxoheptyl]-(S)-piperazyl]aminoisovaleric acid N-methyl-N-methoxyamide] | 330 |
| CCCCC[C@H](CC(=O)NO)C(=O)N1NCCC[C@H]1C(=O)N[C@H](C(=O)OC)C(C)C [Example 4, Methyl 2-(S)-[N^2-[2-(R)-(Hydroxyaminocarbonyl)methyl-1-oxoheptyl]-(S)-piperazyl]aminoisovalerate] | 350 |
| CCCCC[C@H](CC(=O)NO)C(=O)N1NCCC[C@H]1C(=O)N[C@H](C(=O)OC(C)(C)C)C(C)C [Example 5] | 360 |
| CN(C)C(=O)[C@@H]1CCCNN1C(=O)[C@H](CCc1ccccc1)CC(=O)NO [Example 21, N^2-[2-(R)-(Hydroxyaminocarbonyl)methyl-1-oxo-4-phenylbutyl]-(S)-piperazic acid N,N-dimethylamide] | 280 |
| CC(C)C[C@H](CC(=O)NO)C(=O)N1NCCC[C@H]1C(=O)N(C)C [Example 32, N^2-[2-(R)-(Hydroxyaminocarbonyl)methyl-1-oxo-4-methyl-pentyl]-(S)-piperazic acid N,N-dimethylamide] | 750 |
| CCCCC[C@H](CC(=O)NO)C(=O)N1NCCC[C@H]1C(=O)N[C@H](C(=O)CC)[C@@H](C)CC [Example 108, reference compound] | 1400 |
| CCCCC[C@H](CC(=O)NO)C(=O)N1NCCC[C@H]1C(=O)N[C@@H](C(=O)CC)[C@H](C)CC [Example 109, N^2-[2-(R)-(Hydroxyaminocarbonyl)methyl-1-oxoheptyl]-(S)-piperazic acid (4R,5R)-5-methyl-3-oxoheptan-4-ylamide, reference compound] | 4300 |
| CCCCC[C@H](CC(=O)NO)C(=O)N1NCCC[C@@H]1C(=O)N[C@H](C(=O)CC)[C@@H](C)CC [Example 110, N^2-[2-(R)-(Hydroxyaminocarbonyl)methyl-1-oxoheptyl]-(R)-piperazic acid (4S,5S)-methyl-3-oxoheptan-4-ylamide, reference compound] | 18500 |

Results, then the compound that gave them:

| IC50 [nM] | Structure (SMILES) |
| --- | --- |
| 82 | CCCCCC[C@H](CC(=O)NO)C(=O)N1NCCC[C@H]1C(=O)NC [Example 14, N^2-[2-(R)-(Hydroxyaminocarbonyl)methyl-1-oxooctyl]-(S)-piperazic acid N-methylamide] |
| 42 | CCCCCCC[C@H](CC(=O)NO)C(=O)N1NCCC[C@H]1C(=O)NC [Example 16, N^2-[2-(R)-(Hydroxyaminocarbonyl)methyl-1-oxononyl]-(S)-piperazic acid N-methylamide] |
| 270 | CCCCCCC[C@H](CC(=O)NO)C(=O)N1NCCC[C@H]1C(=O)N(C)C [Example 17, N^2-[2-(R)-(Hydroxyaminocarbonyl)methyl-1-oxononyl]-(S)-piperazic acid N,N-dimethylamide] |
| 27 | CCCCCCCCCC[C@H](CC(=O)NO)C(=O)N1NCCC[C@H]1C(=O)NC [Example 18, N^2-[2-(R)-(Hydroxyaminocarbonyl)methyl-1-oxododecyl]-(S)-piperazic acid N-methylamide] |
| 80 | CCCCCCCCCC[C@H](CC(=O)NO)C(=O)N1NCCC[C@H]1C(=O)N(C)C [Example 19, N^2-[2-(R)-(Hydroxyaminocarbonyl)methyl-1-oxododecyl]-(S)-piperazic acid N,N-dimethylamide] |
| 73 | CNC(=O)[C@@H]1CCCNN1C(=O)[C@H](CCc1ccccc1)CC(=O)NO [Example 20, N^2-[2-(R)-(Hydroxyaminocarbonyl)methyl-1-oxo-4-phenylbutyl]-(S)-piperazic acid N-methylamide] |
| 160 | CCCCC[C@H](CC(=O)NO)C(=O)N1NCCC[C@H]1C(=O)NCC [Example 27, N^2-[2-(R)-(Hydroxyaminocarbonyl)methyl-1-oxoheptyl]-(S)-piperazic acid N-ethylamide] |
| 250 | CCCCC[C@H](CC(=O)NO)C(=O)N1NCCC[C@H]1C(N)=O [Example 29, N^2-[2-(R)-(Hydroxyaminocarbonyl)methyl-1-oxoheptyl]-(S)-piperazylamide] |
| 240 | CCCCC[C@H](CC(=O)NO)C(=O)N1NCCC[C@H]1C(=O)NCC(C)C [Example 30, N^2-[2-(R)-(Hydroxyaminocarbonyl)methyl-1-oxoheptyl]-(S)-piperazic acid N-isobutylamide] |
| 64 | CCCCCCCC[C@H](CC(=O)NO)C(=O)N1NCCC[C@H]1C(=O)N(C)C [Example 33, N^2-[2-(R)-(Hydroxyaminocarbonyl)methyl-1-oxodecyl]-(S)-piperazic acid N,N-dimethylamide] |
| 37 | CCCCCCCC[C@H](CC(=O)NO)C(=O)N1NCCC[C@H]1C(=O)NCC [Example 34, N^2-[2-(R)-(Hydroxyaminocarbonyl)methyl-1-oxodecyl]-(S)-piperazic acid N-ethylamide] |
| 200 | CCCCCCCC[C@H](CC(=O)NO)C(=O)N1NCCC[C@H]1C(=O)N(CC)CC [Example 35, N^2-[2-(R)-(Hydroxyaminocarbonyl)methyl-1-oxodecyl]-(S)-piperazic acid N,N-diethylamide] |

tested on: type IV collagenases; assay: not given; details: cited from earlier work

| Structure (SMILES) | inhibitor relatively specific to type IV collagenases |
| --- | --- |
| CNC(=O)[C@H](Cc1ccc(OC)cc1)NC(=O)[C@@H](CC(=O)NO)CC(C)C [SC 44463] | inhibitor relatively specific to type IV collagenases |

tested on: cancer metastasis; assay: not given; details: animal experiment; cited from earlier work

| Structure (SMILES) | inhibitory activity on cancer metastasis |
| --- | --- |
| CNC(=O)[C@H](Cc1ccc(OC)cc1)NC(=O)[C@@H](CC(=O)NO)CC(C)C [SC 44463] | confirmed to exhibit an inhibitory activity on cancer metastasis |

tested on: aminopeptidase M; assay: not given; details: low concentrations; cited from earlier work

| Structure (SMILES) | inhibition of aminopeptidase M |
| --- | --- |
| CCCCC[C@H](CC(=O)NO)C(=O)N[C@H](C(=O)N1CCC[C@H]1CO)C(C)C [actinonin] | inhibit aminopeptidase M at low concentrations |

tested on: collagenase; assay: not given; details: cited from earlier work

| Structure (SMILES) | collagenase inhibiting activity |
| --- | --- |
| CCCCCC(CC(=O)NO)C(=O)N1NCCCC1C(=O)NC(CC(C)C)C(C)=O (stereo not drawn) | collagenase inhibiting activities |
| CC(C)C[C@H](NC(=O)[C@@H]1CCCN1C(=O)OCc1ccccc1)C(=O)NCC(=O)NO [benzyloxycarbonyl propyl-leucyl-glycylhydroxamic acid] (Cbz-Pro-Leu-Gly-{NHOH}) | showing collagenase inhibiting effects |

tested on: bacteria; assay: not given; details: cited from earlier work

| Structure (SMILES) | antibacterial activity |
| --- | --- |
| CCCCCC(CC(=O)NO)C(=O)N1NCCCC1C(=O)NC(CC(C)C)C(C)=O (stereo not drawn) | antibacterial |
| CCCCCC(CC(=O)NO)C(=O)N1NCCCC1C(=O)NC(C(=O)CC)C(C)CC (stereo not drawn) | antibacterial activity |
